Tests used:
[1] = target: Apoptosis regulator Bcl-2 (Homo sapiens, UniProt P10415); assay: Inhibition of Bid-BH3 peptide binding to Bcl-2 (unknown origin) after 3 hrs by fluorescence polarization method
RS4-11 = assay: Antiproliferative activity against human RS4:11 cells after 72 hrs by MTT assay; format: functional, cell-based; details: RS4-11, 72 h
Jurkat [2] = assay: Induction of apoptosis in human Jurkat cells assessed as necrotic cells at 20 uM after 48 hrs by annexin V-FITC/PI staining based flow cytometry (reference value: 0.008%); format: functional
Bcl-2-like protein 1 = Bcl-2-like protein 1 (Homo sapiens, UniProt Q07817); assay: Inhibition of Bid-BH3 peptide binding to Bcl-xL (unknown origin) after 3 hrs by fluorescence polarization method
Chain of Bcl-2-like protein 1 (Q07817 whole entry): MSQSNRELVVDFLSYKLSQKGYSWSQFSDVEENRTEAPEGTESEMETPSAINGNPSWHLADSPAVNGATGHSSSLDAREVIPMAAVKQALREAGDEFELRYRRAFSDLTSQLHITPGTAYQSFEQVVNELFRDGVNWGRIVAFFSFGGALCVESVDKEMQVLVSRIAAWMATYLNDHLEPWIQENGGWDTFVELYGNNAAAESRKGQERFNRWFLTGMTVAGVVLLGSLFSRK

Jurkat [3] = assay: Induction of apoptosis in human Jurkat cells after 48 hrs by annexin V-FITC/PI staining based flow cytometry; format: functional, cell-based
Jurkat [4] = assay: Induction of apoptosis in human Jurkat cells assessed as late apoptotic cells at 20 uM after 48 hrs by annexin V-FITC/PI staining based flow cytometry (reference value: 0.31%); format: functional
Jurkat [5] = assay: Induction of apoptosis in human Jurkat cells assessed as viable cells at 20 uM after 48 hrs by annexin V-FITC/PI staining based flow cytometry (reference value: 97.4%); format: functional; details: read-out: Activity
Jurkat [6] = assay: Induction of apoptosis in human Jurkat cells assessed as necrotic cells at 10 uM after 48 hrs by annexin V-FITC/PI staining based flow cytometry (reference value: 0.008%); format: functional
Jurkat [7] = assay: Induction of apoptosis in human Jurkat cells assessed as viable cells at 10 uM after 48 hrs by annexin V-FITC/PI staining based flow cytometry (reference value: 97.4%); format: functional; details: read-out: Activity
MOLT-4 = assay: Antiproliferative activity against human MOLT4 cells after 72 hrs by MTT assay; format: functional, cell-based; details: MOLT-4, 72 h
Jurkat [8] = assay: Induction of apoptosis in human Jurkat cells assessed as late apoptotic cells at 10 uM after 48 hrs by annexin V-FITC/PI staining based flow cytometry (reference value: 0.31%); format: functional
Jurkat [9] = assay: Induction of apoptosis in human Jurkat cells assessed as increase in activation of caspase-3 after 48 hrs by fluorometric method; format: functional, cell-based
Jurkat [10] = assay: Antiproliferative activity against human Jurkat cells after 72 hrs by MTT assay; format: functional, cell-based
THP-1 = assay: Antiproliferative activity against human THP1 cells after 72 hrs by MTT assay; format: functional, cell-based; details: THP-1, 72 h
[11] = target: Induced myeloid leukemia cell differentiation protein Mcl-1 (Homo sapiens, UniProt Q07820); assay: Inhibition of Bid-BH3 peptide binding to Mcl-1 (unknown origin) after 3 hrs by fluorescence polarization method
Chain of Induced myeloid leukemia cell differentiation protein Mcl-1 (Q07820 whole entry): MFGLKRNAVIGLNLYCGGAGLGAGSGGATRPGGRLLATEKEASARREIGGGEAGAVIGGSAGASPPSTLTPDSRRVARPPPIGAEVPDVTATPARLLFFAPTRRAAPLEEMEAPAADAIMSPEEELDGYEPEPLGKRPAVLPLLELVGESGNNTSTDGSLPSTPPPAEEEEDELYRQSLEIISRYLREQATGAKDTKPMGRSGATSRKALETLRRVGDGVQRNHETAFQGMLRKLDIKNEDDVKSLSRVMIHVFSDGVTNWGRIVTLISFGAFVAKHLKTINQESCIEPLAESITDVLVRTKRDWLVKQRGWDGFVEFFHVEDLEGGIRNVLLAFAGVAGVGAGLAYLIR

Jurkat [12] = assay: Induction of apoptosis in human Jurkat cells assessed as early apoptotic cells at 10 uM after 48 hrs by annexin V-FITC/PI staining based flow cytometry (reference value: 2.26%); format: functional
HUVEC = assay: Cytotoxicity against HUVEC cells after 72 hrs by MTT assay; format: cell-based; details: Homo sapiens
Jurkat [13] = assay: Induction of apoptosis in human Jurkat cells assessed as early apoptotic cells at 20 uM after 48 hrs by annexin V-FITC/PI staining based flow cytometry (reference value: 2.26%); format: functional

Chain of Apoptosis regulator Bcl-2 (P10415 whole entry): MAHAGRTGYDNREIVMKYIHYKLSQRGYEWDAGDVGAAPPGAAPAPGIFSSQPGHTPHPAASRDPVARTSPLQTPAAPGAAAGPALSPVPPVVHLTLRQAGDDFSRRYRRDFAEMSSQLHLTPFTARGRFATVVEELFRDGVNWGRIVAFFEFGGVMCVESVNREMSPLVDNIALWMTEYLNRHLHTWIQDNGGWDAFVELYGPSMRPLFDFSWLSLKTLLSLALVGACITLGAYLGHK

**Q.** Which Ki [1] does the source give for `Cl.N#Cc1ccc(COc2ccc(C[C@H](N)C(=O)NS(=O)(=O)c3ccc(NCCCc4ccccc4)c([N+](=O)[O-])c3)cc2)cc1` here?
**A.** Not Active

**Q.** For `N#Cc1ccc(COc2ccc(C[C@H](NC(=O)Cc3ccc(-c4ccccc4)cc3)C(=O)NS(=O)(=O)c3ccc(NC4CCCC4)c([N+](=O)[O-])c3)cc2)cc1`, which Ki ([1]; read-out: Ki) is on record?
**A.** 610 nM

**Q.** How did the Ki ([1]; read-out: Ki) turn out when `O=C(N[C@@H](Cc1ccc(OCc2ccc(-c3ccccc3)cc2)cc1)C(=O)NS(=O)(=O)c1ccc(Cl)c([N+](=O)[O-])c1)c1cccnc1` was run?
**A.** 580 nM

**Q.** Which Ki [1] does the source give for `Cl.N[C@@H](Cc1ccc(OCc2ccc(-c3ccccc3)cc2)cc1)C(=O)NS(=O)(=O)c1ccc(NC2CCCCC2)c([N+](=O)[O-])c1` here?
**A.** Not Active

**Q.** How did the Ki [1] turn out when `O=C(N[C@@H](Cc1ccc(OCc2ccc(-c3ccccc3)cc2)cc1)C(=O)NS(=O)(=O)c1ccc(NC2CCCCC2)c([N+](=O)[O-])c1)c1ccc2ccccc2c1` was run?
**A.** Not Active

**Q.** For `Cc1ccc(-c2ccc(COc3ccc(C[C@H](NC(=O)OC(C)(C)C)C(=O)NS(=O)(=O)c4ccc(Cl)c([N+](=O)[O-])c4)cc3)cc2)cc1`, which Ki ([1]; read-out: Ki) is on record?
**A.** 390 nM

**Q.** For `CC(C)(C)OC(=O)N[C@@H](Cc1ccc(OCc2ccc(Oc3ccccc3)cc2)cc1)C(=O)NS(=O)(=O)c1ccc(NC2CCCCC2)c([N+](=O)[O-])c1`, which Ki [1] is on record?
**A.** Not Active

**Q.** `CC(C)(C)OC(=O)N[C@@H](Cc1ccc(OCc2ccc(Oc3ccccc3)cc2)cc1)C(=O)NS(=O)(=O)c1ccc(Cl)c([N+](=O)[O-])c1` was tested. Which Ki ([1]; read-out: Ki) did it give?
**A.** 700 nM

**Q.** Which Ki [1] does the source give for `Cl.N[C@@H](Cc1ccc(OCc2ccccc2)cc1)C(=O)NS(=O)(=O)c1ccc(NCCCc2ccccc2)c([N+](=O)[O-])c1` here?
**A.** Not Active

**Q.** How did the IC50 (RS4-11) turn out when `Cc1ccc(CC(=O)N[C@@H](Cc2ccc(OCc3ccc(-c4ccccc4)cc3)cc2)C(=O)NS(=O)(=O)c2ccc(NCCCc3ccccc3)c([N+](=O)[O-])c2)cc1` was run?
**A.** 3390 nM

**Q.** What about the Activity (Jurkat [2]) of the same compound?
**A.** 0%

**Q.** What about the Ki (Bcl-2-like protein 1) of the same compound?
**A.** Not Active

**Q.** And the Activity (Jurkat [3])?
**A.** Dose-dependent effect

**Q.** What about the Activity (Jurkat [4]) of the same compound?
**A.** 1.42%

**Q.** What about the viability at 20 µM (Jurkat [5]) of the same compound?
**A.** 77.8%

**Q.** What about the Activity (Jurkat [6]) of the same compound?
**A.** 0.037%

**Q.** And the viability at 10 µM (Jurkat [7])?
**A.** 93.8%

**Q.** What about the IC50 (MOLT-4) of the same compound?
**A.** 8360 nM

**Q.** What about the Activity (Jurkat [8]) of the same compound?
**A.** 0.72%

**Q.** What about the Activity (Jurkat [9]) of the same compound?
**A.** Dose-dependent effect

**Q.** What about the IC50 (Jurkat [10]) of the same compound?
**A.** 3370 nM

**Q.** What about the IC50 (THP-1) of the same compound?
**A.** 6460 nM

**Q.** What about the Ki [11] of the same compound?
**A.** 190 nM

**Q.** What about the Activity (Jurkat [12]) of the same compound?
**A.** 5.48%

**Q.** And the Ki ([1]; read-out: Ki)?
**A.** 450 nM

**Q.** And the IC50 (HUVEC)?
**A.** > 50000 nM

**Q.** What about the Activity (Jurkat [13]) of the same compound?
**A.** 20.8%

**Q.** `O=C(N[C@@H](Cc1ccc(OCc2ccc(-c3ccccc3)cc2)cc1)C(=O)NS(=O)(=O)c1ccc(Cl)c([N+](=O)[O-])c1)c1ccc2ccccc2c1` was tested. Which Ki ([1]; read-out: Ki) did it give?
**A.** 570 nM

**Q.** Which Ki ([1]; read-out: Ki) does the source give for `Cc1ccc(CC(=O)N[C@@H](Cc2ccc(OCc3ccc(-c4ccccc4)cc3)cc2)C(=O)NS(=O)(=O)c2ccc(Cl)c([N+](=O)[O-])c2)cc1` here?
**A.** 1100 nM

**Q.** For `N#Cc1ccc(COc2ccc(C[C@H](NC(=O)c3ccc4ccccc4c3)C(=O)NS(=O)(=O)c3ccc(NCCCc4ccccc4)c([N+](=O)[O-])c3)cc2)cc1`, which Ki [1] is on record?
**A.** Not Active

**Q.** `CC(C)(C)OC(=O)N[C@@H](Cc1ccc(OCc2ccc(-c3ccccc3)cc2)cc1)C(=O)NS(=O)(=O)c1ccccc1` was tested. Which Ki ([1]; read-out: Ki) did it give?
**A.** 5200 nM

**Q.** With `Cc1ccc(CC(=O)N[C@@H](Cc2ccc(OCc3ccccc3)cc2)C(=O)NS(=O)(=O)c2ccc(NCCCc3ccccc3)c([N+](=O)[O-])c2)cc1` as the compound, how does the IC50 (RS4-11) read?
**A.** 16800 nM

**Q.** What about the Ki (Bcl-2-like protein 1) of the same compound?
**A.** Not Active

**Q.** And the IC50 (MOLT-4)?
**A.** > 50000 nM

**Q.** And the IC50 (Jurkat [10])?
**A.** 23800 nM

**Q.** What about the IC50 (THP-1) of the same compound?
**A.** 23900 nM

**Q.** And the Ki [11]?
**A.** 500 nM

**Q.** What about the Ki ([1]; read-out: Ki) of the same compound?
**A.** 450 nM

**Q.** What about the IC50 (HUVEC) of the same compound?
**A.** > 50000 nM

**Q.** `Cc1ccc(-c2ccc(COc3ccc(C[C@H](NC(=O)OC(C)(C)C)C(=O)NS(=O)(=O)c4ccc(NCC5CCCCC5)c([N+](=O)[O-])c4)cc3)cc2)cc1` was tested. Which Ki [1] did it give?
**A.** Not Active

**Q.** With `CC(C)(C)OC(=O)N[C@@H](Cc1ccc(OCc2ccc(C#N)cc2)cc1)C(=O)NS(=O)(=O)c1ccc(NCCCc2ccccc2)c([N+](=O)[O-])c1` as the compound, how does the Ki ([1]; read-out: Ki) read?
**A.** 800 nM

**Q.** With `Cl.N[C@@H](Cc1ccc(OCc2ccc(-c3ccccc3)cc2)cc1)C(=O)NS(=O)(=O)c1ccc(NCCCc2ccccc2)c([N+](=O)[O-])c1` as the compound, how does the Ki [1] read?
**A.** Not Active

**Q.** For `CC(C)(C)OC(=O)N[C@@H](Cc1ccc(OCc2ccccc2)cc1)C(=O)NS(=O)(=O)c1ccc(Cl)c([N+](=O)[O-])c1`, which Ki [1] is on record?
**A.** Not Active

**Q.** How did the Ki ([1]; read-out: Ki) turn out when `CC(C)(C)OC(=O)N[C@@H](Cc1ccc(OCc2ccccc2)cc1)C(=O)NS(=O)(=O)c1ccc(NCCCc2ccccc2)c([N+](=O)[O-])c1` was run?
**A.** 1500 nM

**Q.** With `CCCCCC(=O)N[C@@H](Cc1ccc(OCc2ccc(-c3ccccc3)cc2)cc1)C(=O)NS(=O)(=O)c1ccc(Cl)c([N+](=O)[O-])c1` as the compound, how does the Ki ([1]; read-out: Ki) read?
**A.** 560 nM

**Q.** `CC(C)(C)OC(=O)N[C@@H](Cc1ccc(OCc2ccc(C#N)cc2)cc1)C(=O)NS(=O)(=O)c1ccc(NC2CCCC2)c([N+](=O)[O-])c1` was tested. Which Ki [1] did it give?
**A.** Not Active

**Q.** For `Cl.N#Cc1ccc(COc2ccc(C[C@H](N)C(=O)NS(=O)(=O)c3ccc(NC4CCCC4)c([N+](=O)[O-])c3)cc2)cc1`, which Ki [1] is on record?
**A.** Not Active

**Q.** Which Ki [1] does the source give for `CC(C)(C)OC(=O)N[C@@H](Cc1ccc(OCc2ccc(-c3ccccc3)cc2)cc1)C(=O)NS(=O)(=O)c1ccc(NCCCc2ccccc2)c([N+](=O)[O-])c1` here?
**A.** Not Active

**Q.** With `Cl.N[C@@H](Cc1ccc(OCc2ccc(-c3ccccc3)cc2)cc1)C(=O)NS(=O)(=O)c1ccc(Cl)c([N+](=O)[O-])c1` as the compound, how does the Ki [1] read?
**A.** Not Active

**Q.** With `Cc1ccc(-c2ccc(COc3ccc(C[C@H](NC(=O)OC(C)(C)C)C(=O)NS(=O)(=O)c4ccc(NCCOc5ccccc5)c([N+](=O)[O-])c4)cc3)cc2)cc1` as the compound, how does the Ki ([1]; read-out: Ki) read?
**A.** 850 nM

**Q.** For `CC(C)(C)OC(=O)N[C@@H](Cc1ccc(OCc2ccc(-c3ccccc3)cc2)cc1)C(=O)NS(=O)(=O)c1ccc(Cl)c([N+](=O)[O-])c1`, which IC50 (RS4-11) is on record?
**A.** 14000 nM

**Q.** And the Ki (Bcl-2-like protein 1)?
**A.** Not Active

**Q.** And the IC50 (MOLT-4)?
**A.** 44400 nM

**Q.** And the IC50 (Jurkat [10])?
**A.** 23500 nM

**Q.** What about the IC50 (THP-1) of the same compound?
**A.** 27200 nM

**Q.** And the Ki [11]?
**A.** 450 nM

**Q.** What about the Ki ([1]; read-out: Ki) of the same compound?
**A.** 620 nM

**Q.** And the IC50 (HUVEC)?
**A.** > 50000 nM

**Q.** `CC(C)(C)OC(=O)N[C@@H](Cc1ccc(OCc2ccc(-c3ccccc3)cc2)cc1)C(=O)NS(=O)(=O)c1ccc(NC2CCCCC2)c([N+](=O)[O-])c1` was tested. Which Ki [1] did it give?
**A.** Not Active

**Q.** For `CC(C)(C)OC(=O)N[C@@H](Cc1ccc(OCc2ccc(-c3ccc(Cl)cc3)cc2)cc1)C(=O)NS(=O)(=O)c1ccc(Cl)c([N+](=O)[O-])c1`, which Ki ([1]; read-out: Ki) is on record?
**A.** 580 nM

— ChEMBL document CHEMBL4229556, “Discovery and development of substituted tyrosine derivatives as Bcl-2/Mcl-1 inhibitors” (Bioorg Med Chem, 2018)
